Measured values reported in publication PMC2074382 (British Journal of Cancer, 1996).
Where “and” joins values, the source holds several entries; their conditions need not be identical. Equal values may be shown once. Where a name gives a salt, the structure may show the parent alone.

Experiment: Pharmacokinetics (lactone form, HPLC, non-compartmental) in plasma and urine, days 1 and 4 of first course
Conditions: for fe, fraction of the drug excreted unchanged / Clr, renal clearance: Table VI
Source text: British Journal of Cancer (1996) 73, 744-750 O (C? 1996 Stockton Press All rights reserved 0007-0920/96 $12.00 Phase I and pharmacological study of the new topoisomerase I inhibitor G1147211, using a daily x 5 intravenous administration CJH Gerrits', GJ Creemers', JHM Schellens', P Wissel2, AS Th Planting', R Kunka2, K Selinger2, M de Boer-Dennert', Y Marijnen3, M Harteveld' and J Verweijl 'Department of Medical Oncology, Rotterdam Cancer Institute, Rotterdam, The Netherlands; 2Glaxo Wellcome Inc, Department of Clinical Pharmacology, NC, USA; 3Glaxo Wellcome Inc, Department of Clinical Research, Zeist, The Netherlands. Summary Topoisomerase I inhibitors are interesting anti-cancer agents with a novel mechanism of action. […] In subsequent patient cohorts the dose was escalated from 0.3 to 1.5 mg m-2 day-'. Pharmacokinetics analysis was performed on days 1 and 4 of the first course using a validated high- performance liquid chromatographic assay and non-compartmental methods. […] Its further development was stopped because of unpredictable and severe myelosuppression, gastrointestinal toxicity and haemorrhagic cystitis. In the late 1980s two discoveries brought about a renewal of interest in CPT; firstly, topoisomerase I was identified as the single cellular target of CPT (Hsiang et al., 1985; Hsiang and Liu, 1988) and, secondly, an overexpression of topoisomerase I was found in various tumour cell lines but not in normal tissues (Giovanella et al., 1989; Hirabayaski et al., 1992; Potmesil et al., 1988). Topoisomerase I is a nuclear enzyme that resolves topological problems of the torsionally strained (supercoiled) DNA (Slichenmyer et al., 1993). This is achieved by forming a covalent adduct between topoisome- rase I and the DNA, termed the cleavable complex. This catalytic intermediate creates single-strand DNA breaks, allowing the DNA molecule to rotate around the intact DNA strand at the cleavage site, leading to a relaxation of the DNA molecule and in this way replication, transcription and other DNA functions can proceed. These enzyme- bridged breaks are then resealed by topoisomerase I. CPT stabilises the cleavable complexes, thereby preventing resealing of single-strand DNA breaks in the presence of the drug (Covey et al., 1989; D'Arpa and Liu, 1989; Eng et al., 1988). Cytotoxicity is specific to the S-phase of the cell cycle because the double-strand breaks that occur during this phase are more difficult to repair in the presence of the drug (Horwitz and Horwitz, 1973). […] Other eligibility criteria included: (1) age>, 18 years; (2) an Eastern Cooperative Oncology Group (ECOG) performance status <2; (3) a predicted life expectancy of at least 3 months; (4) no previous anti-cancer therapy for at least 3 weeks (6 weeks for previous nitro- soureas or mitomycin C); (5) adequate haemato- poietic (WBC) 3 x 109 -', ANC > 1.5 x 109 1-' and platelets 100 x 10 1- 1), hepatic (bilirubin within normal limits, AST, ALT and/or alkaline phosphatase < 2.0 x normal), and renal (serum creatinine < 130 imol 1-') functions. All patients gave written informed consent.

[1] = 1.2 mg m-2, day 1, mean of dose level
[2] = 1.2 mg m-2, day 4, individual patients 7-12 in order
[3] = 1.2 mg m-2, day 4, mean of dose level
[4] = 1.5 mg m-2, day 1, individual patients 13, 15-18 in order
[5] = 1.5 mg m-2, day 1, individual patients 13-18 in order
[6] = 1.5 mg m-2, day 1, mean of dose level
[7] = 1.5 mg m-2, day 4, individual patients 13-18 in order
[8] = 1.5 mg m-2, day 4, mean of dose level
[9] = day 4, individual patients 1-3, 5-12, 16-18 in order

CC[C@@]1(O)C(=O)OCc2c1cc1n(c2=O)Cc2c-1nc1cc3c(cc1c2CN1CCN(C)CC1)OCCO3 [GI147211, [7 - (methylpiperazinomethylene) - 10,11 - ethylene-dioxy-20(S)] camptothecin dihydrochloride]
Cmax, mean [1]: 14.98 ng/mL
MRT, mean [1]: 3.47 h
Vdss, mean [1]: 203 l m-2
t1/2, mean [1]: 3.45 h
tmax, mean [1]: 0.39 h
AUCinf [2]: 20.59 ng·h/mL and 37.83 ng·h/mL and 21.10 ng·h/mL and 14.84 ng·h/mL and 26.62 ng·h/mL and 16.96 ng·h/mL
Clearance, total plasma clearance [2]: 971 ml min-1 m-2 and 529 ml min-1 m-2 and 948 ml min-1 m-2 and 1348 ml min-1 m-2 and 802 ml min-1 m-2 and 1179 ml min-1 m-2
Cmax [2]: 18.66 ng/mL and 20.03 ng/mL and 16.21 ng/mL and 9.62 ng/mL and 12.74 ng/mL and 11.63 ng/mL
MRT [2]: 3.06 h and 5.62 h and 3.47 h and 3.96 h and 7.06 h and 4.44 h
Vdss [2]: 163 l m-2 and 167 l m-2 and 182 l m-2 and 299 l m-2 and 307 l m-2 and 291 l m-2
t1/2, elimination half-life [2]: 3.02 h and 4.07 h and 2.70 h and 2.20 h and 6.99 h and 4.99 h
tmax [2]: 0.25 h and 0.42 h (5×)
AUCinf, mean [3]: 22.99 ng·h/mL
Clearance, mean [3]: 963 ml min-1 m-2
Cmax, mean [3]: 14.82 ng/mL
MRT, mean [3]: 4.60 h
Vdss, mean [3]: 235 l m-2
t1/2, mean [3]: 3.99 h
tmax, mean [3]: 0.39 h
AUCinf [4]: 24.66 ng·h/mL and 24.39 ng·h/mL and 23.32 ng·h/mL and 22.64 ng·h/mL and 28.37 ng·h/mL
Clearance, total plasma clearance [4]: 1014 ml min-1 m-2 and 1025 ml min-1 m-2 and 1072 ml min-1 m-2 and 1104 ml min-1 m-2 and 881 ml min-1 m-2
MRT [4]: 5.11 h and 3.57 h and 3.32 h and 3.65 h and 3.78 h
Vdss [4]: 296 l m-2 and 204 l m-2 and 197 l m-2 and 225 l m-2 and 186 l m-2
t1/2, elimination half-life [4]: 4.98 h and 4.62 h and 4.37 h and 4.61 h and 4.42 h
Cmax [5]: 15.08 ng/mL and 27.48 ng/mL and 19.21 ng/mL and 19.53 ng/mL and 18.91 ng/mL and 15.90 ng/mL
tmax [5]: 0.25 h (3×) and 0.42 h (2×) and 0.75 h
AUCinf, mean [6]: 24.68 ng·h/mL
Clearance, mean [6]: 1019 ml min-1 m-2
Cmax, mean [6]: 19.35 ng/mL
MRT, mean [6]: 3.89 h
Vdss, mean [6]: 222 l m-2
t1/2, mean [6]: 4.60 h
tmax, mean [6]: 0.39 h
AUCinf [7]: 26.92 ng·h/mL and 29.51 ng·h/mL and 30.85 ng·h/mL and 34.51 ng·h/mL and 24.85 ng·h/mL and 52.70 ng·h/mL
Clearance, total plasma clearance [7]: 929 ml min-1 m-2 and 847 ml min-1 m-2 and 810 ml min-1 m-2 and 724 ml min-1 m-2 and 1006 ml min-1 m-2 and 474 ml min-1 m-2
Cmax [7]: 20.02 ng/mL and 23.81 ng/mL and 25.41 ng/mL and 32.19 ng/mL and 21.18 ng/mL and 28.25 ng/mL
MRT [7]: 5.06 h and 2.56 h and 3.04 h and 4.47 h and 5.75 h and 4.74 h
Vdss [7]: 261 l m-2 and 117 l m-2 and 144 l m-2 and 178 l m-2 and 319 l m-2 and 126 l m-2
t1/2, elimination half-life [7]: 4.95 h and 3.44 h and 4.35 h and 5.62 h and 5.82 h and 4.43 h
tmax [7]: 0.42 h (4×) and 0.25 h (2×)
AUCinf, mean [8]: 33.22 ng·h/mL
Clearance, mean [8]: 798 ml min-1 m-2
Cmax, mean [8]: 25.14 ng/mL
MRT, mean [8]: 4.27 h
Vdss, mean [8]: 191 l m-2
t1/2, mean [8]: 4.77 h
tmax, mean [8]: 0.36 h
relation of AUC to the dose (0.3-1.5 mg m-2, Figure 3 day 4 of course 1): linearly related to the dose
terminal half-life (abstract, all patients): 3.7 ± 1.2 h
total plasma clearance (abstract, all patients): 999 ± 184 mL/min
total plasma clearance, range (abstract, all patients): 640 to 1329 mL/min
volume of distribution (abstract, all patients): 190+/-461 m-2
fraction of the drug excreted unchanged in the urine (fe) (day 1): 0.14 ± 0.07
renal clearance (day 1): 140+74 ml min-1 m-2
Clr, mean (day 1, Table VI): 251 ml min-1 and 140 ml min-1 m-2
fe, mean (day 1, Table VI): 0.143
Total plasma clearance (mean+s.d.) (day 1, all dose levels): 1014+ 177.0 ml min-1 m-2
Vdss (mean+s.d.) (day 1, all dose levels): 193+ 45.9 l m-2
mean residence time (MRT) (mean+s.d.) (day 1, all dose levels): 3.53+0.93 h
t1/2 (mean+s.d.) (day 1, all dose levels): 3.54+0.99 h
fe, fraction of the drug excreted unchanged (day 1, individual patients 1-12, 14, 15 in order): 0.114 and 0.081 and 0.212 and 0.115 and 0.156 and 0.149 and 0.106 and 0.101 and 0.088 and 0.085 and 0.116 and 0.347 and 0.191 and 0.135
Clr, renal clearance (day 1, individual patients 1-12, 15 in order): 232 ml min-1 and 116 ml min-1 m-2 and 184 ml min-1 and 101 ml min-1 m-2 (2×) and 333 ml min-1 and 222 ml min-1 m-2 and 231 ml min-1 and 115 ml min-1 m-2 and 161 ml min-1 and 194 ml min-1 and 107 ml min-1 m-2 (2×) and 201 ml min-1 and 122 ml min-1 m-2 and 151 ml min-1 and 84 ml min-1 m-2 and 203 ml min-1 and 226 ml min-1 and 113 ml min-1 m-2 and 208 ml min-1 and 119 ml min-1 m-2 and 663 ml min-1 and 358 ml min-1 m-2 and 280 ml min-1 and 150 ml min-1 m-2
Clr, mean (day 4, Table VI): 244 ml min-1 and 138 ml min-1 m-2
Clr, renal clearance [9]: 175 ml min-1 and 88 ml min-1 m-2 and 128 ml min-1 and 70 ml min-1 m-2 and 430 ml min-1 and 287 ml min-1 m-2 and 192 ml min-1 and 120 ml min-1 m-2 and 225 ml min-1 and 123 ml min-1 m-2 and 196 ml min-1 and 119 ml min-1 m-2 and 212 ml min-1 and 118 ml min-1 m-2 and 241 ml min-1 and 127 ml min-1 m-2 and 344 ml min-1 and 172 ml min-1 m-2 and 314 ml min-1 and 179 ml min-1 m-2 and 459 ml min-1 and 248 ml min-1 m-2 and 218 ml min-1 and 128 ml min-1 m-2 and 182 ml min-1 and 91 ml min-1 m-2 and 101 ml min-1 and 59 ml min-1 m-2
fe, fraction of the drug excreted unchanged [9]: 0.109 and 0.095 and 0.428 and 0.181 and 0.197 and 0.122 and 0.219 and 0.133 and 0.128 and 0.239 and 0.210 and 0.177 and 0.090 and 0.125
